Laboratory results from ChEMBL document CHEMBL5550161, “Discovery of novel small molecules targeting the USP21/JAK2/STAT3 axis for the treatment of triple-negative breast cancer” (Eur J Med Chem, 2024).

Columns and labels:
HCC1806 = experiment: Anti-proliferative activity against human HCC1806 cells assessed as cell growth inhibition incubated for 72 hrs by MTT assay; assay type: functional, cell-based; conditions: HCC1806, 72 h
MCF7 = experiment: Anti-proliferative activity against human MCF7 cells assessed as cell growth inhibition incubated for 72 hrs by MTT assay; assay type: functional, cell-based; conditions: MCF7, 72 h
MDA-MB-231 = experiment: Anti-proliferative activity against human MDA-MB-231 cells assessed as cell growth inhibition incubated for 72 hrs by MTT assay; assay type: functional, cell-based; conditions: MDA-MB-231, 72 h
Hs-578T = experiment: Anti-proliferative activity against human Hs-578T cells assessed as cell growth inhibition incubated for 72 hrs by MTT assay; assay type: functional, cell-based
[1] = molecular target: Tyrosine-protein kinase JAK2 (Homo sapiens, UniProt O60674); experiment: Inhibition of JAK2 (unknown origin)
Chain of Tyrosine-protein kinase JAK2 (O60674 whole entry): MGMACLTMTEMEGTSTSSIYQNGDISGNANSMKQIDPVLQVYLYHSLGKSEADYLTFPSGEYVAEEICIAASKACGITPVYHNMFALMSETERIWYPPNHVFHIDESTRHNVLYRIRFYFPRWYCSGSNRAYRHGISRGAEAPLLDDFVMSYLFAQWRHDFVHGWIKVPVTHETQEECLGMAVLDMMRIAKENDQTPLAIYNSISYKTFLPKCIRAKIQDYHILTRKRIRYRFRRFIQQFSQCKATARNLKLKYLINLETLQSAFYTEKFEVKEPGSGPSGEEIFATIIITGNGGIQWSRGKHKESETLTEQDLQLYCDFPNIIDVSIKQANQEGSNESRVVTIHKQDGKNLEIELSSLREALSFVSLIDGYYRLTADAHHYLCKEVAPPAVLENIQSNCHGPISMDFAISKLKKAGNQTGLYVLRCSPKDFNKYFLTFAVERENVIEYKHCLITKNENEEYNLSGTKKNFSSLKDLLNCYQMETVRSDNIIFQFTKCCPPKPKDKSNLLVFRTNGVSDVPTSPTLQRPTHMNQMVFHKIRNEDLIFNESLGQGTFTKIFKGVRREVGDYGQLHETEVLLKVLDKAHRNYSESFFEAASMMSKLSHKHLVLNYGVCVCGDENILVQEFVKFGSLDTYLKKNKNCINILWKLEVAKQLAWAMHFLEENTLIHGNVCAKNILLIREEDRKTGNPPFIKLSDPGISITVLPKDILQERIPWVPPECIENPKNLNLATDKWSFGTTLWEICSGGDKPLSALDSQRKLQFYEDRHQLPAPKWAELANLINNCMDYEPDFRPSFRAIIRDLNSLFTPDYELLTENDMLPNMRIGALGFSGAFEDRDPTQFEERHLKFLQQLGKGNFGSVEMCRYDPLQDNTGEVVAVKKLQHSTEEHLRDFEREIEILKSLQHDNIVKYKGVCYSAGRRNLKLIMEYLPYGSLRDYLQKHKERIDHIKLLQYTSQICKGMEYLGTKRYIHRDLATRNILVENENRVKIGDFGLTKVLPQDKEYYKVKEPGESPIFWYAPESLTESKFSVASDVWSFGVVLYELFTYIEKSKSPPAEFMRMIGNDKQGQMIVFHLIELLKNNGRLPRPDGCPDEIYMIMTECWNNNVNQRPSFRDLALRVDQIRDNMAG

Compound | IC50 (HCC1806) | IC50 (MCF7) | IC50 (MDA-MB-231) | IC50 [1] | IC50 (Hs-578T)
COc1cc(Br)c2c(CCNC(=O)c3ccc(F)cc3Nc3cc(OC)c(OC)c(OC)c3)c[nH]c2c1 | > 100 µM | > 100 µM | 58.2 µM | – | > 100 µM
COc1ccc2[nH]cc(CCNC(=O)c3ccc(F)cc3Nc3cc(OC)c(OC)c(OC)c3)c2c1 | 18 µM | 23.6 µM | 4.66 µM | – | > 100 µM
COc1cc(C)c2[nH]cc(CCNC(=O)c3ccc(F)cc3Nc3cc(OC)c(OC)c(OC)c3)c2c1 | 15.1 µM | > 100 µM | 2.12 µM | – | 19.8 µM
COc1cc(Nc2cc(F)ccc2C(=O)NCCc2c[nH]c3cccc(Cl)c23)cc(OC)c1OC | 1.82 µM | 3.26 µM | 1.99 µM | – | 3.02 µM
COc1cc(Nc2cc(F)ccc2C(=O)NCCc2c[nH]c3cc(F)ccc23)cc(OC)c1OC | 8.43 µM | 5.09 µM | 2.65 µM | – | 89.1 µM
COc1cc(Nc2cccc(C(F)(F)F)c2C(=O)NCCc2c[nH]c3ccccc23)cc(OC)c1OC | > 100 µM | 67 µM | > 100 µM | – | > 100 µM
COc1cc(Nc2c(C(=O)NCCc3c[nH]c4ccccc34)cccc2[N+](=O)[O-])cc(OC)c1OC | > 100 µM | > 100 µM | 31.3 µM | – | > 100 µM
COc1cc(Nc2cc(F)ccc2C(=O)NCCc2c[nH]c3c(C(F)(F)F)cccc23)cc(OC)c1OC | 10.5 µM | 8.98 µM | 4.03 µM | – | 19.4 µM
COc1cc2[nH]cc(CCNC(=O)c3ccc(F)cc3Nc3cc(OC)c(OC)c(OC)c3)c2cc1OC | 91.5 µM | 65.8 µM | 94 µM | – | > 100 µM
COc1cc(Nc2cc(F)ccc2C(=O)NCCc2c[nH]c3c(OC)cccc23)cc(OC)c1OC | 2.57 µM | > 100 µM | 20.9 µM | – | 2.86 µM
COc1ccc2c(CCNC(=O)c3ccc(F)cc3Nc3cc(OC)c(OC)c(OC)c3)c[nH]c2c1 | 1.75 µM | 40.4 µM | 46.7 µM | – | > 100 µM
COc1cc(Nc2cc(F)ccc2C(=O)NCCc2c[nH]c3ccc(Br)cc23)cc(OC)c1OC | 3.46 µM | 8.65 µM | 2.94 µM | – | 51.5 µM
COc1cc(Nc2cc(F)ccc2C(=O)NCCc2c[nH]c3ccc(F)cc23)cc(OC)c1OC | 2.4 µM | 1.38 µM | 0.83 µM | – | 1.37 µM
COc1cc(Nc2cc(F)ccc2C(=O)NCCc2c[nH]c3c(Cl)cccc23)cc(OC)c1OC | 2.82 µM | 1.65 µM | 1.09 µM | – | 1.57 µM
COc1cc(Nc2cc(F)ccc2C(=O)NCCc2c[nH]c3cc(F)c(F)cc23)cc(OC)c1OC | 20.2 µM | 50.6 µM | 1.68 µM | – | 27.3 µM
COc1cc(Nc2cccc(Cl)c2C(=O)NCCc2c[nH]c3ccccc23)cc(OC)c1OC | > 100 µM | 41.5 µM | 95.1 µM | – | > 100 µM
COc1cc(Nc2cc(F)ccc2C(=O)NCCc2c[nH]c3c(F)cccc23)cc(OC)c1OC | 0.4 µM | 0.53 µM | 0.37 µM | – | 0.76 µM
COc1cc(Nc2cc(F)ccc2C(=O)NCCc2c[nH]c3cccc(Br)c23)cc(OC)c1OC | 2.16 µM | 4.37 µM | 3.55 µM | – | 7.97 µM
COc1cc(Nc2cc(F)ccc2C(=O)NCCc2c[nH]c3c(Br)cccc23)cc(OC)c1OC | 1.94 µM | 3.56 µM | 2.44 µM | – | 13.1 µM
COc1cc(Nc2cc(F)ccc2C(=O)NCCc2c[nH]c3ccc(F)c(F)c23)cc(OC)c1OC | 0.92 µM | 1.86 µM | 0.68 µM | – | 1.32 µM
COc1cc(Nc2cc(F)ccc2C(=O)NCCc2c[nH]c3cc(F)cc(F)c23)cc(OC)c1OC | 14.2 µM | 23 µM | 1.47 µM | – | 26.4 µM
COc1cc(Nc2cc(F)ccc2C(=O)NCCc2c[nH]c3cccc(F)c23)cc(OC)c1OC | 0.47 µM | 0.97 µM | 0.53 µM | – | 1.86 µM
COc1cc(Nc2cc(F)ccc2C(=O)NCCc2c[nH]c3cccc(OC)c23)cc(OC)c1OC | 18.2 µM | 20.6 µM | 2.96 µM | – | 34.7 µM

Further lines, with some results ahead:

IC50 (HCC1806) | IC50 (MCF7) | IC50 (MDA-MB-231) | IC50 [1] | Compound | IC50 (Hs-578T)
8.3 µM | > 100 µM | 41.8 µM | – | COc1cc(Nc2cc(F)c(F)cc2C(=O)NCCc2c[nH]c3ccccc23)cc(OC)c1OC | 4.38 µM
34.5 µM | 74 µM | 11.9 µM | – | COc1cc(Nc2cc(F)ccc2C(=O)NCCc2c[nH]c3cc(C)ccc23)cc(OC)c1OC | > 100 µM
15 µM | > 100 µM | 93.7 µM | – | COc1cc(Nc2cc(C)c(F)cc2C(=O)NCCc2c[nH]c3ccccc23)cc(OC)c1OC | 47.8 µM
1.88 µM | 2.69 µM | 2.6 µM | – | COc1cc(Nc2cc(Cl)ccc2C(=O)NCCc2c[nH]c3ccccc23)cc(OC)c1OC | 13.1 µM
> 100 µM | > 100 µM | > 100 µM | – | COc1cc(Nc2cccc(C)c2C(=O)NCCc2c[nH]c3ccccc23)cc(OC)c1OC | > 100 µM
3.25 µM | > 100 µM | 24.3 µM | – | COc1cc(Nc2cccc(F)c2C(=O)NCCc2c[nH]c3ccccc23)cc(OC)c1OC | 24.5 µM
29.9 µM | > 100 µM | 82.1 µM | – | COc1ccc(Nc2cc(OC)c(OC)c(OC)c2)c(C(=O)NCCc2c[nH]c3ccccc23)c1 | > 100 µM
7.81 µM | 8.77 µM | 2.79 µM | – | COc1cc(Nc2cc(F)ccc2C(=O)NCCc2c[nH]c3ccc(C)cc23)cc(OC)c1OC | 55.5 µM
4.33 µM | 3.28 µM | 3.75 µM | – | COc1cc(Nc2cc(Br)ccc2C(=O)NCCc2c[nH]c3ccccc23)cc(OC)c1OC | > 100 µM
> 100 µM | > 100 µM | > 100 µM | – | COc1cc(Nc2cccc(OC)c2C(=O)NCCc2c[nH]c3ccccc23)cc(OC)c1OC | > 100 µM
52.2 µM | 58.6 µM | 22.4 µM | – | COc1cc(Nc2cc(C(F)(F)F)ccc2C(=O)NCCc2c[nH]c3ccccc23)cc(OC)c1OC | 84.3 µM
20.2 µM | 11 µM | 38.6 µM | – | COc1cc(Nc2cc(F)c(C)cc2C(=O)NCCc2c[nH]c3ccccc23)cc(OC)c1OC | > 100 µM
3.14 µM | > 100 µM | 1.66 µM | – | COc1cc(Nc2cc(F)cc(F)c2C(=O)NCCc2c[nH]c3ccccc23)cc(OC)c1OC | 1.03 µM
8.46 µM | 12.2 µM | 3.08 µM | – | COc1cc(Nc2cc(F)ccc2C(=O)NCCc2c[nH]c3cc(Cl)ccc23)cc(OC)c1OC | 57.7 µM
2.4 µM | 1.44 µM | 1.03 µM | – | COc1cc(Nc2cc(F)ccc2C(=O)NCCc2c[nH]c3ccccc23)cc(OC)c1OC | 1.46 µM
> 100 µM | > 100 µM | > 100 µM | – | COc1cc(Nc2ccc(Br)cc2C(=O)NCCc2c[nH]c3ccccc23)cc(OC)c1OC | > 100 µM
2.41 µM | > 100 µM | 99.7 µM | > 10 µM | COc1cc(Nc2ccccc2C(=O)NCCc2c[nH]c3ccccc23)cc(OC)c1OC | 2.18 µM
2.39 µM | 2.7 µM | 2.9 µM | – | COc1cc(Nc2cc(F)ccc2C(=O)NCCc2c[nH]c3cccc(C)c23)cc(OC)c1OC | 3.44 µM
70.7 µM | 29.4 µM | 50.4 µM | – | COc1cc(Nc2cc(F)cc(C)c2C(=O)NCCc2c[nH]c3ccccc23)cc(OC)c1OC | > 100 µM
> 100 µM | > 100 µM | > 100 µM | – | COc1cc(Nc2c(F)cccc2C(=O)NCCc2c[nH]c3ccccc23)cc(OC)c1OC | > 100 µM
12.5 µM | > 100 µM | > 100 µM | – | COc1cc(Nc2ccc(F)cc2C(=O)NCCc2c[nH]c3ccccc23)cc(OC)c1OC | 55.8 µM
3.35 µM | 2.12 µM | 1.97 µM | – | COc1cc(Nc2cc(F)ccc2C(=O)NCCc2c[nH]c3c(C)cccc23)cc(OC)c1OC | 2.1 µM
90 µM | 78 µM | 85.3 µM | – | COc1cc(Nc2c(C(=O)NCCc3c[nH]c4ccccc34)ccc(F)c2F)cc(OC)c1OC | > 100 µM
26.5 µM | > 100 µM | > 100 µM | – | COc1cc(Nc2cc(C)ccc2C(=O)NCCc2c[nH]c3ccccc23)cc(OC)c1OC | > 100 µM
1.84 µM | 3.1 µM | 2.14 µM | – | COc1cc(Nc2cc(F)ccc2C(=O)NCCc2c[nH]c3cc(Br)ccc23)cc(OC)c1OC | 22.1 µM
11.3 µM | 8.75 µM | 2.2 µM | – | COc1cc(Nc2cc(F)ccc2C(=O)NCCc2c[nH]c3ccc(Cl)cc23)cc(OC)c1OC | 41.3 µM
> 100 µM | > 100 µM | > 100 µM | – | COc1cc(Nc2c(C)cccc2C(=O)NCCc2c[nH]c3ccccc23)cc(OC)c1OC | > 100 µM
> 100 µM | > 100 µM | > 100 µM | – | COc1cc(Nc2c(F)cc(F)cc2C(=O)NCCc2c[nH]c3ccccc23)cc(OC)c1OC | > 100 µM
> 100 µM | 43.3 µM | 82.7 µM | – | COc1cc(Nc2ccc(C(F)(F)F)cc2C(=O)NCCc2c[nH]c3ccccc23)cc(OC)c1OC | > 100 µM
> 100 µM | > 100 µM | > 100 µM | – | COc1cc(Nc2ccc(Cl)cc2C(=O)NCCc2c[nH]c3ccccc23)cc(OC)c1OC | > 100 µM
